Assay results published in ChEMBL document CHEMBL4308885, “The development of myeloperoxidase inhibitors” (Bioorg Med Chem Lett, 2019).

Legend:
Myeloperoxidase [1] = molecular target: T1, Myeloperoxidase (Homo sapiens, UniProt P05164); experiment: Inhibition of MPO in human neutrophils using H2O2 as substrate measured after 5 mins
T1 sequence (P05164 whole entry): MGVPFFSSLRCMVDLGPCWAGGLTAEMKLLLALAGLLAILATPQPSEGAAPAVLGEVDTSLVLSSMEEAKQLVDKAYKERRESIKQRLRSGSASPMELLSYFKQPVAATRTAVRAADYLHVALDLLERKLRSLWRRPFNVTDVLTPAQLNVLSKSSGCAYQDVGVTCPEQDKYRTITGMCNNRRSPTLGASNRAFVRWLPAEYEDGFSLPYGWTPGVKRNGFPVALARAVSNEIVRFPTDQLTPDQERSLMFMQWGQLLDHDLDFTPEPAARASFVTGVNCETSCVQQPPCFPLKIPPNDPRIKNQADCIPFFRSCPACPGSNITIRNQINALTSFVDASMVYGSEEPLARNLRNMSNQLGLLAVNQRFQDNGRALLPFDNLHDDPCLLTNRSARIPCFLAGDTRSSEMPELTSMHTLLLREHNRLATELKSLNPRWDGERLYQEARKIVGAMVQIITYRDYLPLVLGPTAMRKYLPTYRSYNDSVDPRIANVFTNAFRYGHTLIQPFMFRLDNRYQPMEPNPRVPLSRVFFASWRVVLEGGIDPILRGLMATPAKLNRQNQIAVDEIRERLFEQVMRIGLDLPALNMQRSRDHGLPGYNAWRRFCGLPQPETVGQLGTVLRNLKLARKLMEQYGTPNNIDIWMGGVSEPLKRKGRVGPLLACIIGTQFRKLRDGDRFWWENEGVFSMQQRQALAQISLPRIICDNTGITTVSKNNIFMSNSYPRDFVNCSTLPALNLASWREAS

Myeloperoxidase [2] = molecular target: T1, Myeloperoxidase; experiment: Inhibition of MPO (unknown origin)
[3] = molecular target: T2, Myeloperoxidase (Homo sapiens) (UniProt P05164); experiment: Inhibition of MPO in human neutrophils assessed as reduction in PMA-stimulated HOCl production at 1 uM relative to control
T2 sequence (whole entry): T1 sequence (P05164 whole entry)

[4] = molecular target: T2, Myeloperoxidase (Homo sapiens); experiment: Inhibition of MPO in human neutrophils at 10'4 M using H2O2 as substrate measured for 30 secs in presence of o-dianisidine hydrochloride by spectrophotometric method relative to control
Myeloperoxidase [5] = molecular target: T1, Myeloperoxidase; experiment: Inhibition of MPO (unknown origin) using H2O2 as substrate

With `NNC(=O)c1ccc(O)cc1` the IC50 (Myeloperoxidase [1]) was 2 µM.

For `CC(C)OCCn1c(=S)[nH]c(=O)c2[nH]ccc21`, the IC50 (Myeloperoxidase [2]) was 0.63 µM.

`O=c1[nH]c(=S)n(C[C@H]2CCCO2)c2nc[nH]c12` showed an inhibition [3] of 90%.

`O=c1c(O)c(-c2ccc(O)c(O)c2)oc2cc(O)cc(O)c12` showed an inhibition [4] of 100%.

Work on `CC(=O)Oc1ccccc1C(=O)O` [ASPIRIN] yielded an IC50 (Myeloperoxidase [2]) of 200 µM.

With `Nc1ccc(S(=O)(=O)c2ccc(N)cc2)cc1` [DAPSONE] the IC50 (Myeloperoxidase [2]) was 0.42 µM.

For `COc1ccc2[nH]cc(CCNC(C)=O)c2c1` [MELATONIN], the IC50 (Myeloperoxidase [5]) was 3 µM.

`N[C@@H](Cc1c[nH]c2ccccc12)C(=O)O` [TRYPTOPHAN] was tested, and the IC50 (Myeloperoxidase [5]) was 2.25 µM.
